Results: ChEMBL document CHEMBL3875146, “Mycobacterium Tuberculosis (MTB) GyrB inhibitors: An attractive approach for developing novel drugs against TB” (Eur J Med Chem, 2016)
Values after ≈ are worked out from the molar mass of the structure shown.

Key:
[1] = target: DNA gyrase subunit A/DNA gyrase subunit B (Mycobacterium tuberculosis (strain ATCC 25618 / H37Rv), UniProt P9WG45+P9WG47); assay: Inhibition of Mycobacterium tuberculosis DNA gyrase assessed as inhibition of DNA supercoiling activity using relaxed pBR322 as substrate incubated for 30 mins by ethidium bromide staining based agarose gel electrophoresis
DNA gyrase subunit A/DNA gyrase subunit B, sequence (P9WG45 whole entry): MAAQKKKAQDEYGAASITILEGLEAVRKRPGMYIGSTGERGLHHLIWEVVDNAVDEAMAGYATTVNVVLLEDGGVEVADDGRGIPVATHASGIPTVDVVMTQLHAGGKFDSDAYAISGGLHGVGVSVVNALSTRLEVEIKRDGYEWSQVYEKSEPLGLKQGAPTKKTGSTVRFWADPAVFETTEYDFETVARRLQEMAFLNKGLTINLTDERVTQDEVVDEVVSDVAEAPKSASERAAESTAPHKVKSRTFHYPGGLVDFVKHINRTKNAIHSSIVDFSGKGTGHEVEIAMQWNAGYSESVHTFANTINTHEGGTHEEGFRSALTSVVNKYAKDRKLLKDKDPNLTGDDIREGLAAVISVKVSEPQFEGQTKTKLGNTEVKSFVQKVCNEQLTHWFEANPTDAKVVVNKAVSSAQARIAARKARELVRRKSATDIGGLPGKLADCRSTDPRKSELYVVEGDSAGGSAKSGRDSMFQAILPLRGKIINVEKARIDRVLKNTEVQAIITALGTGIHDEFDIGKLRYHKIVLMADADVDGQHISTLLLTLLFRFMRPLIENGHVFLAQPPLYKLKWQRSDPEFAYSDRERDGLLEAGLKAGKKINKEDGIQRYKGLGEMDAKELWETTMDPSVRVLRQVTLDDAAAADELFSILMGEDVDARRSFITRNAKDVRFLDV
DNA gyrase subunit A/DNA gyrase subunit B, sequence (P9WG47 whole entry): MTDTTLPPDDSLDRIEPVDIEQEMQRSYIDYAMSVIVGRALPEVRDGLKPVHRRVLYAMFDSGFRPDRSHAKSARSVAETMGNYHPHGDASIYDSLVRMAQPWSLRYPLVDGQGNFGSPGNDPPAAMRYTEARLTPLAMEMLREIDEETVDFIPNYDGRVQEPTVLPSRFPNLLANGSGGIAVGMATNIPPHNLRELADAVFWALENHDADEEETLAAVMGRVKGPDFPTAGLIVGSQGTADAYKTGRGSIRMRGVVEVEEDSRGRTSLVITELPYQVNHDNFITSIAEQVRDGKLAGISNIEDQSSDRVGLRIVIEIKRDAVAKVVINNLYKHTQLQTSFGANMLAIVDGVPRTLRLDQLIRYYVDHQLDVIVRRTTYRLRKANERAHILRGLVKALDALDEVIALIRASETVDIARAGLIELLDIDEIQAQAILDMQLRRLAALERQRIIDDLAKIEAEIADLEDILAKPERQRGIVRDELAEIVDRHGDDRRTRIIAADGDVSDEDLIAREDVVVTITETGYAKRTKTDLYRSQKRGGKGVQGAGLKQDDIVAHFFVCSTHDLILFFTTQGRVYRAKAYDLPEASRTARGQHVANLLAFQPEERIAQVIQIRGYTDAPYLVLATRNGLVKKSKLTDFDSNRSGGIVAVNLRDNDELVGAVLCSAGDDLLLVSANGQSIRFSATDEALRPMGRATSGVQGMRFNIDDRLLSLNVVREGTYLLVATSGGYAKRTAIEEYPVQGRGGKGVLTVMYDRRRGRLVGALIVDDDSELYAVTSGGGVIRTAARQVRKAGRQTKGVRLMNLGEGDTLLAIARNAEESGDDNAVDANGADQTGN

[2] = target: DNA gyrase subunit B (Mycobacterium smegmatis, UniProt P0C559); assay: Inhibition of Mycobacterium smegmatis DNA gyrase B expressed in BL21(DE3)pLysS cells assessed as inhibition of […] activity in presence of ATP measured after 30 mins by malachite green dye based assay; assay type: cell-based, Mycolicibacterium smegmatis
DNA gyrase subunit B, sequence (P0C559 whole entry): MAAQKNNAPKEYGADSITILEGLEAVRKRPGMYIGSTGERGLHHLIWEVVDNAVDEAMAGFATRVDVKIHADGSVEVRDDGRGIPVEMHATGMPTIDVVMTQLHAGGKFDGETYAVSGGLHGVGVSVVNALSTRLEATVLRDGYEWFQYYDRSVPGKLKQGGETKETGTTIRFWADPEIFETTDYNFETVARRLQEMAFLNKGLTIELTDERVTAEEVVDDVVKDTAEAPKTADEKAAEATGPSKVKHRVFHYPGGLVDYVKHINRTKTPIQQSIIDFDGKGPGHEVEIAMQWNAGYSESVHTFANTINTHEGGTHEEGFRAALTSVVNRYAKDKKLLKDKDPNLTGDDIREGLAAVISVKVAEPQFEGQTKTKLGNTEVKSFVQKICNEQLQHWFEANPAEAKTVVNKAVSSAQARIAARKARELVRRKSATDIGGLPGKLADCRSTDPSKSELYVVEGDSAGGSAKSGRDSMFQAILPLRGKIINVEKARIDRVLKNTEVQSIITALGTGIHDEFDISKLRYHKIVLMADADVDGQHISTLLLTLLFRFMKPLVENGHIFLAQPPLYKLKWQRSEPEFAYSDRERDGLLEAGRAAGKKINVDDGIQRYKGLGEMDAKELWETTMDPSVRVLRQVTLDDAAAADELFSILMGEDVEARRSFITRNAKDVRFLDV

[3] = Cytotoxicity against mouse RAW264.7 cells assessed as inhibition of cell viability at 100 uM measured after 72 hrs by MTT assay relative to control; assay type: toxicity; settings: read-out: INH
[4] = system: Mycobacterium tuberculosis; assay: Antimycobacterial activity against Mycobacterium tuberculosis incubated for 7 days by alamar blue assay; assay type: functional; settings: 168 h
[5] = Cytotoxicity against mouse RAW264.7 cells assessed as inhibition of cell viability at 100 uM measured after 48 hrs by MTT assay relative to control; assay type: toxicity; settings: read-out: INH

With `COc1ccc2c(c1)C(=O)C(=O)N2CCN1CCN(NCc2ccc(Cl)cc2Cl)CC1` the IC50 [1] was 4.1 µM, the IC50 [2] was 15.8 µM and the cytotoxicity at 72 h, 100 µM [3] was 26.4%.

`Cc1ccc2c(c1)C(=O)C(=O)N2CCN1CCN(NCc2cccc(Cl)c2Cl)CC1` showed an IC50 [1] of 43.1 µM, an IC50 [2] of 53.6 µM and a cytotoxicity at 72 h, 100 µM [3] of 27.8%.

Molecule `O=C1C(=O)N(CCN2CCN(NCc3ccc([N+](=O)[O-])o3)CC2)c2ccccc21` has an IC50 [1] of 4.6 µM, an IC50 [2] of 20.2 µM and a cytotoxicity at 72 h, 100 µM [3] of 30.6%.

Molecule `COc1ccc2c(c1)C(=O)C(=O)N2CCN1CCN(NCc2cccc(Cl)c2Cl)CC1` has an IC50 [1] of 48.6 µM, an IC50 [2] of 73 µM and a cytotoxicity at 72 h, 100 µM [3] of 23.9%.

Molecule `O=C1C(=O)N(CCN2CCN(NCc3ccc([N+](=O)[O-])o3)CC2)c2ccc(Cl)cc21` has an IC50 [1] of 23.9 µM, an IC50 [2] of 47.5 µM and a cytotoxicity at 72 h, 100 µM [3] of 34.2%.

With `COc1ccc2c(c1)C(=O)C(=O)N2CCN1CCN(NCc2ccccc2OCc2ccccc2)CC1` the IC50 [1] was 36.5 µM, the IC50 [2] was 69.7 µM and the cytotoxicity at 72 h, 100 µM [3] was 16.3%.

`O=C1C(=O)N(CCN2CCN(NCc3ccccc3F)CC2)c2ccccc21` gave an IC50 [1] of 43.6 µM, an IC50 [2] of 83 µM and a cytotoxicity at 72 h, 100 µM [3] of 10.3%.

Molecule `Cc1ccc2c(c1)C(=O)C(=O)N2CCN1CCN(NCc2ccccc2F)CC1` has an IC50 [1] of 50 µM, an IC50 [2] of 76 µM and a cytotoxicity at 72 h, 100 µM [3] of 27.6%.

For `O=C1C(=O)N(CCN2CCN(NCc3ccc(Cl)cc3Cl)CC2)c2ccccc21`, the IC50 [1] was 40.3 µM, the IC50 [2] was 84 µM and the cytotoxicity at 72 h, 100 µM [3] was 18.5%.

For `O=C1C(=O)N(CCN2CCN(NCc3ccccc3F)CC2)c2ccc(F)cc21`, the IC50 [1] was 4.2 µM, the IC50 [2] was 20.3 µM and the cytotoxicity at 72 h, 100 µM [3] was 22.1%.

For `COc1ccc2c(c1)C(=O)C(=O)N2CCN1CCN(NCc2ccccc2OC)CC1`, the IC50 [1] was 48.6 µM, the IC50 [2] was 81.2 µM and the cytotoxicity at 72 h, 100 µM [3] was 15.4%.

Molecule `O=C1C(=O)N(CCN2CCN(NCc3ccccc3C(F)(F)F)CC2)c2ccc(Cl)cc21` has an IC50 [1] of 4.9 µM, an IC50 [2] of 22.1 µM and a cytotoxicity at 72 h, 100 µM [3] of 16.4%.

Molecule `Cc1ccc2c(c1)C(=O)C(=O)N2CCN1CCN(NCc2ccc(Cl)cc2Cl)CC1` has an IC50 [1] of 48.9 µM, an IC50 [2] of 79 µM and a cytotoxicity at 72 h, 100 µM [3] of 25.3%.

In the case of `O=C1C(=O)N(CCN2CCN(NCc3ccccc3OCc3ccccc3)CC2)c2ccc(F)cc21`, the IC50 [1] is reported as 42.3 µM, the IC50 [2] is reported as 70.1 µM and the cytotoxicity at 72 h, 100 µM [3] is reported as 11.7%.

For `O=C1C(=O)N(CCN2CCN(NCc3ccccc3OCc3ccccc3)CC2)c2ccccc21`, the IC50 [1] was 10 µM, the IC50 [2] was 26.6 µM and the cytotoxicity at 72 h, 100 µM [3] was 13.9%.

`O=C1C(=O)N(CCN2CCN(NCc3ccccc3C(F)(F)F)CC2)c2ccccc21` gave an IC50 [1] of 25 µM, an IC50 [2] of 51 µM and a cytotoxicity at 72 h, 100 µM [3] of 4.2%.

In the case of `COc1ccc2c(c1)C(=O)C(=O)N2CCN1CCN(NCc2ccccc2C(F)(F)F)CC1`, the IC50 [1] is reported as 39.1 µM, the IC50 [2] is reported as 61.5 µM and the cytotoxicity at 72 h, 100 µM [3] is reported as 10.5%.

Work on `COc1ccccc1CNN1CCN(CCN2C(=O)C(=O)c3cc(Cl)ccc32)CC1` yielded an IC50 [1] of 50 µM, an IC50 [2] of 76 µM and a cytotoxicity at 72 h, 100 µM [3] of 24%.

In the case of `Cc1ccc2c(c1)C(=O)C(=O)N2CCN1CCN(NCc2ccccc2OCc2ccccc2)CC1`, the IC50 [1] is reported as 10 µM, the IC50 [2] is reported as 28.3 µM and the cytotoxicity at 72 h, 100 µM [3] is reported as 34.6%.

Molecule `O=C1C(=O)N(CCN2CCN(NCc3ccccc3OCc3ccccc3)CC2)c2ccc(Cl)cc21` has an IC50 [1] of 3.8 µM, an IC50 [2] of 13.8 µM and a cytotoxicity at 72 h, 100 µM [3] of 26.8%.

Molecule `O=C1C(=O)N(CCN2CCN(NCc3ccc(Cl)cc3Cl)CC2)c2ccc(Cl)cc21` has an IC50 [1] of 50 µM, an IC50 [2] of 68 µM and a cytotoxicity at 72 h, 100 µM [3] of 24%.

With `O=C1C(=O)N(CCN2CCN(NCc3ccccc3C(F)(F)F)CC2)c2ccc(F)cc21` the IC50 [1] was 3.6 µM, the IC50 [2] was 10.6 µM and the cytotoxicity at 72 h, 100 µM [3] was 20.6%.

Work on `COc1ccccc1CNN1CCN(CCN2C(=O)C(=O)c3cc(C)ccc32)CC1` yielded an IC50 [1] of 5 µM, an IC50 [2] of 14.1 µM and a cytotoxicity at 72 h, 100 µM [3] of 9.42%.

In the case of `O=c1nc(N2CCN(C(=S)Nc3ccccc3)CC2)sc2ccc([N+](=O)[O-])cc12`, the MIC [4] is reported as 1.82 µM (≈ 0.778 µg/mL), the IC50 [1] is reported as 0.77 µM and the cytotoxicity at 48 h, 100 µM [5] is reported as 3.25%.

Work on `O=c1nc(N2CCN(C(=S)Nc3ccc([N+](=O)[O-])cc3)CC2)sc2ccc(Cl)cc12` yielded an MIC [4] of 13.5 µM (≈ 6.25 µg/mL), an IC50 [1] of 6.23 µM and a cytotoxicity at 48 h, 100 µM [5] of 1.45%.
